Experimental data published in US10463658B2, “Method of inhibiting FLT3 kinase” (AROG Pharmaceuticals, LLC, priority 2013, dated 2019).
Residue numbers refer to the chain shown, from its start.

Key:
[1] = test system: Ba/F3 expressing FLT3-D835Y/ITD cells; assay: Activity against Ba/F3 cells with FLT3-ITD and FLT3-D835Y mutation; format: cell-based; conditions: Mus musculus, BaF3; Ba/F3 FLT-ITD/D835Y cells; read-out: IC50 pFLT3 (text: decreased viability)
FLT3 wild type = target: T1, FLT3 wild type (Homo sapiens, UniProt P36888); assay: KINOMEscan KdElect competitive binding assay, wild type FLT3; conditions: CP-673,451 as tosylate salt; read-out: Binding Constant (Kd), FLT3 wild type
T1 construct: host or cells: E. coli BL21-derived host (T7 phage) or HEK-293
T1 sequence (P36888 610-943 limits assumed): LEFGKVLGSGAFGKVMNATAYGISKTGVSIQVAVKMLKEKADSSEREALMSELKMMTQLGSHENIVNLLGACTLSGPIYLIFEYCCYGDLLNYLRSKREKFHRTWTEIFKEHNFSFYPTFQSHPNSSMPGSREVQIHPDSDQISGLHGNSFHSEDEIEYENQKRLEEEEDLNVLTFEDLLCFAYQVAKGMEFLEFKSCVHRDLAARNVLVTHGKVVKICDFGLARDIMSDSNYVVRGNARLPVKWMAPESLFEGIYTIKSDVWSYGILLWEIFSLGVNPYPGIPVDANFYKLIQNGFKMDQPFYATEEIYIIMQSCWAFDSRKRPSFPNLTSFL

FLT3 N841I = target: T2, FLT3 N841I (Homo sapiens, UniProt P36888, N841I); assay: KINOMEscan KdElect competitive binding assay, FLT3 N841I; conditions: tosylate salt; read-out: Binding Constant (Kd), FLT3 N841I
T2 construct: host or cells: E. coli BL21-derived host (T7 phage) or HEK-293
T2 sequence (P36888 610-943 N841I limits assumed): T1 sequence (P36888 610-943 limits assumed) with N232I
From the text: (§1) Competitive binding assay.
(§2) The lysates were then centrifuged and filtered.

FLT3 D835V = target: T3, FLT3 D835V (Homo sapiens, UniProt P36888, D835V); assay: KINOMEscan KdElect competitive binding assay, FLT3 D835V; conditions: tosylate salt
T3 construct: host or cells: E. coli BL21-derived host (T7 phage) or HEK-293
T3 sequence (P36888 610-943 D835V limits assumed): T1 sequence (P36888 610-943 limits assumed) with D226V
From the text: as §1, §2

FLT3 autoinhibited = target: T4, FLT3 autoinhibited (Homo sapiens, UniProt P36888); assay: KINOMEscan KdElect competitive binding assay, autoinhibited FLT3; conditions: tosylate salt; average Kd; read-out: Binding Constant (Kd), FLT3 autoinhibited
T4 construct: host or cells: E. coli BL21-derived host (T7 phage) or HEK-293
T4 sequence (P36888 564-993 limits assumed): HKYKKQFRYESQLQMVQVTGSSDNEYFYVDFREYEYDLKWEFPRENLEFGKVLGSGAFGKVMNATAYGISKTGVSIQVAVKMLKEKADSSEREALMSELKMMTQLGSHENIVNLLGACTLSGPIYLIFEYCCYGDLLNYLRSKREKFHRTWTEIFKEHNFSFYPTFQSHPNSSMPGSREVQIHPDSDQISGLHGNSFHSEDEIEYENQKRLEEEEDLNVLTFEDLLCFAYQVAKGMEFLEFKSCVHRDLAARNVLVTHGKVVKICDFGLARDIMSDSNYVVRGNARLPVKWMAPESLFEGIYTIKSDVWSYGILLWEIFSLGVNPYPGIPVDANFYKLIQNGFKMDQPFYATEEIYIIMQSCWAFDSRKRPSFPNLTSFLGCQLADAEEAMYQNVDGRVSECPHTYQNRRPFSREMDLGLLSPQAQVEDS
From the text: as §1, §2

FLT3 K663Q = target: T5, FLT3 K663Q (Homo sapiens, UniProt P36888, K663Q); assay: KINOMEscan KdElect competitive binding assay, FLT3 K663Q; conditions: tosylate salt; read-out: Binding Constant (Kd), FLT3 K663Q
T5 construct: host or cells: E. coli BL21-derived host (T7 phage) or HEK-293
T5 sequence (P36888 610-943 K663Q limits assumed): T1 sequence (P36888 610-943 limits assumed) with K54Q
From the text: as §1, §2

FLT3 R834Q = target: T6, FLT3 R834Q (Homo sapiens, UniProt P36888, R834Q); assay: KINOMEscan KdElect competitive binding assay, FLT3 R834Q; conditions: tosylate salt; read-out: Binding Constant (Kd), FLT3 R834Q
T6 construct: host or cells: E. coli BL21-derived host (T7 phage) or HEK-293
T6 sequence (P36888 610-943 R834Q limits assumed): T1 sequence (P36888 610-943 limits assumed) with R225Q
From the text: as §1, §2

IC50 [1]: 23.8 nM
Kd (FLT3 wild type): 0.35 nM
Kd (FLT3 N841I): 0.39 nM
Kd (FLT3 D835V): 0.015 nM
Kd (FLT3 autoinhibited): 18 nM
Kd (FLT3 K663Q): 0.62 nM
Kd (FLT3 R834Q): 0.65 nM
Compound: COCCOc1ccc2c(c1)ncn2-c1ccc2cccc(N3CCC(N)CC3)c2n1 [CP-673,451]
